Assay results reported in PubChem BioAssay (NCI).
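Values below derive from 48-hour exposures of cells grown in 96-well plates, with endpoints linearly interpolated between the two concentrations bracketing the appropriate inhibition level. Here, GI50 denotes the concentration required for 50% inhibition of growth. The concentration for full growth arrest is given as TGI.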

Tests used:
Assay in all cases: growth of human tumour cells (NCI), 48 h
SK-MEL-2 melanoma = test system: SK-MEL-2 melanoma
HOP-62 NSCLC = test system: HOP-62 NSCLC
UACC-257 melanoma = test system: UACC-257 melanoma
SK-OV-3 ovarian = test system: SK-OV-3 ovarian
MCF7 breast = test system: MCF7 breast
SF-295 CNS = test system: SF-295 CNS
IGROV1 ovarian = test system: IGROV1 ovarian
SF-268 CNS = test system: SF-268 CNS
SK-MEL-28 melanoma = test system: SK-MEL-28 melanoma
786-0 renal = test system: 786-0 renal
TK-10 renal = test system: TK-10 renal
SW-620 colon = test system: SW-620 colon
HCT-116 colon = test system: HCT-116 colon
HT29 colon = test system: HT29 colon
K-562 leukemia = test system: K-562 leukemia
SK-MEL-5 melanoma = test system: SK-MEL-5 melanoma
LOX IMVI melanoma = test system: LOX IMVI melanoma
SNB-75 CNS = test system: SNB-75 CNS
ACHN renal = test system: ACHN renal
SN12C renal = test system: SN12C renal
DU-145 prostate = test system: DU-145 prostate
COLO 205 colon = test system: COLO 205 colon
CAKI-1 renal = test system: CAKI-1 renal
SF-539 CNS = test system: SF-539 CNS
M14 melanoma = test system: M14 melanoma
EKVX NSCLC = test system: EKVX NSCLC
U251 CNS = test system: U251 CNS
UACC-62 melanoma = test system: UACC-62 melanoma
NCI-H23 lung = test system: NCI-H23 lung
MALME-3M melanoma = test system: MALME-3M melanoma
OVCAR-8 ovarian = test system: OVCAR-8 ovarian
PC-3 prostate = test system: PC-3 prostate
HOP-92 NSCLC = test system: HOP-92 NSCLC
OVCAR-3 ovarian = test system: OVCAR-3 ovarian
NCI-H226 lung = test system: NCI-H226 lung
OVCAR-4 ovarian = test system: OVCAR-4 ovarian
MDA-MB-435 = test system: MDA-MB-435
MDA-N = test system: MDA-N
UO-31 renal = test system: UO-31 renal
MDA-MB-231 breast = test system: MDA-MB-231 breast
A498 renal = test system: A498 renal
NCI-H460 lung = test system: NCI-H460 lung
CCRF-CEM leukemia = test system: CCRF-CEM leukemia
RPMI-8226 leukemia = test system: RPMI-8226 leukemia
HCT-15 colon = test system: HCT-15 colon
KM12 colon = test system: KM12 colon
MOLT-4 leukemia = test system: MOLT-4 leukemia
NCI-H522 lung = test system: NCI-H522 lung
A549 NSCLC = test system: A549 NSCLC
SNB-19 CNS = test system: SNB-19 CNS
OVCAR-5 ovarian = test system: OVCAR-5 ovarian
HCC-2998 colon = test system: HCC-2998 colon
BT-549 breast = test system: BT-549 breast
NCI/ADR-RES ovarian = test system: NCI/ADR-RES ovarian
T-47D breast = test system: T-47D breast
HS 578T breast = test system: HS 578T breast
SR leukemia = test system: SR leukemia
HL-60(TB) leukemia = test system: HL-60(TB) leukemia
RXF 393 renal = test system: RXF 393 renal

## NC(=O)CCC(NC(=O)c1c2ccccc2nc2ccccc12)C(=O)O (stereo unspecified)
SK-MEL-2 melanoma
  TGI: > 100000 nM
HOP-62 NSCLC
  TGI: > 100000 nM
UACC-257 melanoma
  TGI: > 100000 nM
SK-OV-3 ovarian
  TGI: > 100000 nM
MCF7 breast
  TGI: > 100000 nM
SF-295 CNS
  TGI: > 100000 nM
IGROV1 ovarian
  TGI: > 100000 nM
SF-268 CNS
  TGI: > 100000 nM
SK-MEL-28 melanoma
  TGI: > 100000 nM
786-0 renal
  TGI: > 100000 nM
TK-10 renal
  TGI: > 100000 nM
SW-620 colon
  TGI: > 100000 nM
HCT-116 colon
  TGI: > 100000 nM
HT29 colon
  TGI: > 100000 nM
K-562 leukemia
  TGI: > 100000 nM
SK-MEL-5 melanoma
  TGI: > 100000 nM
LOX IMVI melanoma
  TGI: > 100000 nM
SNB-75 CNS
  TGI: > 100000 nM
ACHN renal
  TGI: > 100000 nM
SN12C renal
  TGI: > 100000 nM
DU-145 prostate
  TGI: > 100000 nM
COLO 205 colon
  TGI: > 100000 nM
CAKI-1 renal
  TGI: > 100000 nM
SF-539 CNS
  TGI: > 100000 nM
M14 melanoma
  TGI: > 100000 nM
EKVX NSCLC
  TGI: > 100000 nM
U251 CNS
  TGI: > 100000 nM
UACC-62 melanoma
  TGI: > 100000 nM
NCI-H23 lung
  TGI: > 100000 nM
MALME-3M melanoma
  TGI: > 100000 nM
OVCAR-8 ovarian
  TGI: > 100000 nM
PC-3 prostate
  TGI: > 100000 nM
HOP-92 NSCLC
  TGI: > 100000 nM
OVCAR-3 ovarian
  TGI: > 100000 nM
NCI-H226 lung
  TGI: > 100000 nM
OVCAR-4 ovarian
  TGI: > 100000 nM
MDA-MB-435
  TGI: > 100000 nM
MDA-N
  TGI: > 100000 nM
UO-31 renal
  TGI: > 100000 nM
MDA-MB-231 breast
  TGI: > 100000 nM
A498 renal
  TGI: > 100000 nM
NCI-H460 lung
  TGI: > 100000 nM
CCRF-CEM leukemia
  TGI: > 100000 nM
RPMI-8226 leukemia
  TGI: > 100000 nM
HCT-15 colon
  TGI: > 100000 nM
KM12 colon
  TGI: > 100000 nM
MOLT-4 leukemia
  TGI: > 100000 nM
NCI-H522 lung
  TGI: > 100000 nM
A549 NSCLC
  TGI: > 100000 nM
SNB-19 CNS
  TGI: > 100000 nM
OVCAR-5 ovarian
  TGI: > 100000 nM
HCC-2998 colon
  TGI: > 100000 nM
BT-549 breast
  TGI: > 100000 nM
NCI/ADR-RES ovarian
  TGI: > 100000 nM

## CN(C)CCS(=O)(=O)Nc1cc(-c2ccc3ncc(C#N)c(Nc4ccc(F)c(Cl)c4)c3c2)cnc1Cl
SK-MEL-2 melanoma
  GI50: 173 nM
  TGI: 532 nM
HOP-62 NSCLC
  GI50: 248 nM
  TGI: > 22700 nM
UACC-257 melanoma
  GI50: 273 nM
  TGI: 3510 nM
SK-OV-3 ovarian
  GI50: 299 nM
  TGI: 1790 nM
MCF7 breast
  GI50: 106 nM
  TGI: 1390 nM
T-47D breast
  GI50: 73.2 nM
  TGI: 650 nM
SF-295 CNS
  GI50: 366 nM
  TGI: 2400 nM
IGROV1 ovarian
  GI50: 77.7 nM
  TGI: 287 nM
SF-268 CNS
  GI50: 122 nM
  TGI: 692 nM
SK-MEL-28 melanoma
  GI50: 176 nM
  TGI: 1280 nM
786-0 renal
  GI50: 307 nM
  TGI: 3610 nM
TK-10 renal
  GI50: 155 nM
  TGI: 762 nM
SW-620 colon
  GI50: 263 nM
  TGI: 1430 nM
HCT-116 colon
  GI50: 214 nM
  TGI: 690 nM
HT29 colon
  GI50: 388 nM
  TGI: > 25900 nM
K-562 leukemia
  GI50: 229 nM
  TGI: > 50500 nM
SK-MEL-5 melanoma
  GI50: 118 nM
  TGI: 244 nM
LOX IMVI melanoma
  GI50: 117 nM
  TGI: 284 nM
SNB-75 CNS
  GI50: < 15.2 nM
  TGI: 562 nM
ACHN renal
  GI50: 546 nM
  TGI: > 100000 nM
SN12C renal
  GI50: 232 nM
  TGI: > 100000 nM
DU-145 prostate
  GI50: 293 nM
  TGI: 2110 nM
COLO 205 colon
  GI50: 188 nM
  TGI: 439 nM
CAKI-1 renal
  GI50: 91.3 nM
  TGI: 511 nM
SF-539 CNS
  GI50: 212 nM
  TGI: 1170 nM
M14 melanoma
  GI50: 255 nM
  TGI: 1270 nM
EKVX NSCLC
  GI50: 230 nM
  TGI: 1470 nM
U251 CNS
  GI50: 150 nM
  TGI: 746 nM
UACC-62 melanoma
  GI50: 169 nM
  TGI: 630 nM
HS 578T breast
  GI50: 127 nM
  TGI: 1030 nM
NCI-H23 lung
  GI50: 159 nM
  TGI: 469 nM
MALME-3M melanoma
  GI50: 78.8 nM
  TGI: 469 nM
OVCAR-8 ovarian
  GI50: 387 nM
  TGI: > 32600 nM
PC-3 prostate
  GI50: 227 nM
  TGI: 1720 nM
HOP-92 NSCLC
  GI50: 32.2 nM
  TGI: 409 nM
OVCAR-3 ovarian
  GI50: 130 nM
  TGI: 412 nM
NCI-H226 lung
  GI50: 281 nM
  TGI: 2590 nM
OVCAR-4 ovarian
  GI50: 382 nM
  TGI: 10300 nM
MDA-MB-435
  GI50: 374 nM
  TGI: 3000 nM
UO-31 renal
  GI50: 188 nM
  TGI: 1290 nM
MDA-MB-231 breast
  GI50: 185 nM
  TGI: 629 nM
SR leukemia
  GI50: 282 nM
  TGI: > 100000 nM
HL-60(TB) leukemia
  GI50: 70.8 nM
  TGI: 684 nM
A498 renal
  GI50: 144 nM
  TGI: 344 nM
NCI-H460 lung
  GI50: 612 nM
  TGI: 3720 nM
CCRF-CEM leukemia
  GI50: 110 nM
  TGI: 8460 nM
RPMI-8226 leukemia
  GI50: 223 nM
  TGI: 897 nM
RXF 393 renal
  GI50: 95.3 nM
  TGI: 348 nM
MOLT-4 leukemia
  GI50: 120 nM
  TGI: 547 nM
NCI-H522 lung
  GI50: 202 nM
  TGI: 883 nM
A549 NSCLC
  GI50: 1140 nM
  TGI: 4790 nM
SNB-19 CNS
  GI50: 248 nM
  TGI: 2940 nM
OVCAR-5 ovarian
  GI50: 303 nM
  TGI: 4900 nM
HCC-2998 colon
  GI50: 198 nM
  TGI: 393 nM
BT-549 breast
  GI50: 107 nM
  TGI: 485 nM
NCI/ADR-RES ovarian
  GI50: 2110 nM
  TGI: > 29300 nM
